# Measurements published in paper PMC4260745, “Modulation of A1 and A2B adenosine receptor activity: a new strategy to sensitise glioblastoma stem cells to chemotherapy” (Cell Death & Disease, 2014).
# Molecular target: T1, A2BAR (A2B adenosine receptor) (Homo sapiens, UniProt P29275)
# T1 construct: gene ADORA2B
# T1 sequence (P29275 1-332): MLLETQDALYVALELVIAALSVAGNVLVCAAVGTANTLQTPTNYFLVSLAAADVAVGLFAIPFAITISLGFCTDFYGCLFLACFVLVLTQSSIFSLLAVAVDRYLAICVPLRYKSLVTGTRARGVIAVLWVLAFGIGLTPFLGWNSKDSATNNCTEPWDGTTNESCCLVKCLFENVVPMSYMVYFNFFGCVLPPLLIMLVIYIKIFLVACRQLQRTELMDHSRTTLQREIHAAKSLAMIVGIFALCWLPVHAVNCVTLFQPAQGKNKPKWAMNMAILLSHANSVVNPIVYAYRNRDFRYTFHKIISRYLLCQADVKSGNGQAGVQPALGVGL
# Experiment: […]GTPγS binding, membranes of U343MG-derived CSCs (endogenous receptor)
# Assay type: biochemical
smiles,measurement,value
"N#Cc1c(N)nc(SCC(N)=O)c(C#N)c1-c1ccc(OCC2CC2)cc1 [BAY606583, 2-[6-Amino-3,5-dicyano-4-[4-(cyclopropylmethoxy)-phenyl]pyridin-2-ylsulfanyl]acetamide]",EC50,1.9 ± 0.2 nM
